# Source: paper PMC11239005, “Preclinical studies of RA475, a guanidine-substituted spirocyclic candidate RPN13/ADRM1 inhibitor for treatment of ovarian cancer” (PLOS ONE, 2024)
# Assays:
# [1] = tested on: PEA1 cells; experiment: MTT cytotoxicity assay, PEA1; type: cell-based, human; conditions: for IC50: Homo sapiens, PEA1, 72 h
# Method: (§1) All cell lines were obtained from the American Type Culture Collection (ATCC) and cultured in the specified medium supplemented with 10% fetal bovine serum, 100 IU/mL penicillin, and 100 μg/mL streptomycin at 37°C in a humidified 5% CO2/95% air incubator. Synthesis of new compounds is described in S1 File, and >95% purity of RA475, Up284 and its analogs were confirmed by NMR and MS. To assess drug cytotoxicity, cells were seeded at 2,500 cells/well (10,000 cells/well for MM lines) in 100 μL medium in 96-well plate as triplicates and after 24 h treated with compounds for a further 72 h. To assess cytotoxicity, the cells were incubated for 2 h at 37°C according to the manufacturer’s protocol with the Thiazolyl Blue Tetrazolium Bromide (20 μL/well of 5 mg/mL stock solution in water) (Sigma, M5655) and A570 measured using a Benchmark Plus microplate spectrophotometer (BIO-RAD). IC50 was estimated using Graphpad Prism 7 software.
# Modifications of Up284 were sought to improve its drug-like properties without significant compromise of its activity in vivo, and several new compounds were synthesized (S1 File). Based on our prior studies of its pharmacophore, the central ring nitrogen was the most logical for addition of charged moieties, including RA475 and RA484. We also examined a change to either 3,4 spiro rings (RA477, RA479), or addition of 3-Fluoro substitutions (RA482) (S1 File). Our focus is developing iRPN13 to treat ovarian cancer resistant to standard of care drug regimens.
# A wash-out experiment was performed to assess reversibility of the toxicity. PEA1 cells were treated with RA475 for 1 h before the medium was replaced with fresh culture medium, and the cells were then allowed to grow for another 71 hours (PEA1-WO). In parallel, PEA1 cells were incubated with RA475 continuously for 72 h. […] Possible reasons include slow uptake of RA475, reversible binding and neutralization by antioxidants in the medium.
# To study the effect of RA475 in combination with approved therapeutics (DNA damaging agents or radiation) an MTT assay was performed using various concentrations of both drugs. Briefly PEA1 and OVCAR3 cells were each treated with drug combination (RA475 plus cisplatin) for 72 h in a checker board analysis and cell viability was measured using MTT assay. The data were analyzed and plotted using the Synergy Finder web application.
# [2] = tested on: SUM149; experiment: MTT cytotoxicity assay, SUM149; type: cell-based; conditions: SUM149, 72 h
# Method: as §1
# [3] = tested on: high molecular weight polyubiquitinated proteins in OVCAR3 cells; experiment: Anti-ubiquitin immunoblot, OVCAR3; type: cell-based, human; conditions: Up284 0.5 μM, bortezomib 0.25 μM, ixazomib 0.25 μM, RA475 0.5 or 1 μM
# From the text: (§2) Cell lysate prepared in MPER (Pierce) from each sample was normalized by total protein concentration using the bicinchoninic acid assay and bovine serum albumin standards. Normalized samples were subjected to SDS-PAGE, transferred to PVDF membranes and analyzed by Western blot using antibodies specific to ubiquitin (P4D1, sc-8017, Santa Cruz), PARP (#9542, […]), actin (#66009, Protein Tech Group), Tubulin(#66031, Protein Tech Group), ADRM1/RPN13 (D9Z1U, #12019, Cell Signaling), USP14 (Cell Signal, # 8159), Annexin V (#559763, BD Pharmingen), and for secondary antibodies we utilized either horseradish peroxidase (HRP)-linked anti-mouse IgG or anti-rabbit IgG (GE Healthcare UK Ltd), HRP-linked streptavidin (N100, Thermo Fisher) at the recommended dilution (1:5000).
# (§3) Accumulation of high molecular weight polyubiquitinated proteins (polyUb) is a classical phenomenon of proteasome function inhibition due to the stabilization of its substrate.
# (§4) Fig 3 Impact of RA475 on proteasome function. […] Actin was used as loading control. […] C) 4T1 and HCC1806 cells stably expressing 4UbFL were treated with compounds at indicated doses for 4 h and imaged by IVIS200 after the addition of luciferin substrate (50 μL, 7mg/mL in PBS). D) Sub-confluent cultures of ES2 cells stably expressing 4UbFL were seeded at 10,000 cells/well in 96-well microtiter plates. At 18 h post transfection, cells were treated with compounds or vehicle (DMSO) at the doses indicated. After a 4 h incubation, the cells were lysed and the luciferase activity in each cell lysate was determined with a luciferase assay kit (Promega) according to the manufacturer’s instructions. Bioluminescence was measured by using a luminometer (Glomax Multidetection system, Promega) E) A patch was shaved of hair on one leg of CD-1 mice, and 10 μg 4UbFL plasmid in 20 μL of PBS was injected into the quadriceps femoralis muscle followed immediately by injection of the 2 Needle Array to 5 mm depth encompassing the injection site and square wave electroporation (ElectroSquarePorator 833, BTX-2 Needle array 5mm gap, Harvard apparatus) delivered as eight pulses at 106V for 20 ms with 200 ms intervals. One day post electroporation, mice were anesthetized with isoflurane, injected IP with luciferin (0.3 mg in 100 μL water) and optical imaging was performed to determine basal level luciferase expression. Images were acquired for 10 min with a Xenogen IVIS 200 (Caliper, Hopkinton, MA). Equally sized areas were analyzed using Living Image 2.20 software. Mice were imaged weekly during treatment. […]
# [4] = tested on: high molecular weight polyubiquitinated proteins in SKOV3 cells; experiment: Anti-ubiquitin immunoblot, SKOV3; type: cell-based; conditions: Up284 and RA475 0.5 and 1 μM, RA190 1 μM
# From the text: as §2, §3
# as §4, with “D) Sub-confluent cultures of ES2 cells stably expressing 4UbFL were seeded at 10,000 cells/well in 96-well microtiter plates. At 18 h post transfection, cells were treated with compounds or vehicle (DMSO) at the doses indicated.” left out, “One day post electroporation, mice were anesthetized with isoflurane, injected IP with luciferin (0.3 mg in 100 μL water) and optical imaging was performed to determine basal level luciferase expression. Images were acquired for 10 min with a Xenogen IVIS 200 (Caliper, Hopkinton, MA).” left out, “software.” for “software. Mice were imaged weekly during treatment.”
# [5] = tested on: A549; experiment: MTT cytotoxicity assay, A549; type: cell-based; conditions: Homo sapiens, A549, 72 h
# Method: as §1
# [6] = tested on: Calu-1; experiment: MTT cytotoxicity assay, Calu-1; type: cell-based; conditions: Homo sapiens, Calu-1, 72 h
# Method: as §1
# [7] = tested on: HFF; experiment: MTT cytotoxicity assay, HFF; type: cell-based; conditions: Homo sapiens, HFF (normal cells), 72 h
# Method: as §1
# [8] = tested on: ES2; experiment: MTT cytotoxicity assay, ES2; type: cell-based; conditions: Homo sapiens, ES-2, ES2, 72 h
# Method: as §1
# [9] = tested on: TC1-Ova; experiment: MTT cytotoxicity assay, TC1-Ova; type: cell-based; conditions: 72 h
# Method: as §1
# [10] = tested on: Mouse keratinocytes; experiment: MTT cytotoxicity assay, mouse keratinocytes; type: cell-based; conditions: Keratinocyte, Mouse keratinocytes (normal cells), 72 h
# Method: as §1
SMILES,IC50 [1] [nM],"cytotoxic effect after wash-out ([1]; PEA1, RA475 1 h then fresh medium 71 h vs continuous 72 h)","synergy with cisplatin for cytotoxicity ([1]; PEA1, checker board, 72 h, Synergy Finder)",IC50 [2] [nM],forms of polyUb induced [3],accumulation of high molecular weight polyubiquitinated proteins [4],IC50 [5] [nM],IC50 [6] [nM],IC50 [7] [nM],IC50 [8] [nM],IC50 [9] [nM],IC50 [10] [nM]
"Cl.Cl.N#Cc1ccc(/C=C2/C(=O)/C(=C/c3ccc(C#N)cc3)C23CCN(C(=N)N)CC3)cc1 [RA475, 1,3-bis((E)-4-cyanobenzylidene)-2-oxo-7-azaspiro[3.5]nonane-7-carboximidamide dihydrochloride]",406,reduced its cytotoxic effect,mild synergy,100,induced forms of polyUb that did not run into the gel,robust accumulation of polyUb in dose dependent manner,219,241,> 2500,160,150,> 2500
"N#Cc1ccc(/C=C2/C(=O)/C(=C/c3ccc(C#N)cc3)C23CCNCC3)cc1 [Up284, reference compound]",219,,,90,induced forms of polyUb that did not run into the gel,robust accumulation of polyUb,90,65,> 2500,125,90,> 2500
